{"source": "patent US6956046B2", "about": "“4-hydroxypiperidine derivatives having analgesic activity” (priority 2001, dated 2005)", "key": {"[1]": {"assay": "Metabolic stability in human liver microsomes and hepatocytes", "format": "in vitro ADME"}, "[2]": {"system": "human-drug metabolizing enzymes", "assay": "Inhibitory effect on human-drug metabolizing enzymes", "format": "in vitro ADME"}, "[3]": {"system": "Wistar Hannover female rats", "assay": "Toxicological study, oral, rats", "format": "in vivo, rat", "conditions": "oral 400 mg/Kg/day once daily for 14 days", "experimental": "The compounds of Example 8 or Example 12 were orally given to 6 week-old Wistar Hannover female rats at 40 mg/kg/day.\nThe compound of Example 29 was orally given to 6 week-old Wistar Hannover female rats at 400 mg/Kg/day once daily for 14 days, respectively."}, "[4]": {"assay": "Metabolic stability in dog liver microsomes and hepatocytes", "format": "in vitro ADME"}, "[5]": {"system": "formalin-induced nociceptive response in rats", "assay": "Inhibitory effect on the formalin-induced nociceptive response in rats", "format": "in vivo, rat", "conditions": "oral, 30 minutes before subcutaneous formalin; probit method", "experimental": "[Inhibitory Effect on the Formalin-induced Nociceptive Response in Rats]\nThe experiment was undertaken by the method disclosed by Doak et al., Eur. J. Pharmacol. 281:311, 1995. Specifically, 50 μL of 0.5% formalin solution was subcutaneously injected into the left foot pad of the rat, and then each behavior of the rat consisting of the licking or biting of the pad immediately following the injection was checked with a stopwatch for its duration, and its cumulative duration was recorded at five minute intervals. The nociceptive response observed in 10 minutes after the injection was termed a first-phase response while the response observed between 10 minutes and 45 minutes after the injection was termed a second-phase response. The test compound was orally applied to the rat 30 minutes before the subcutaneous injection of formalin. Then, the inhibitory effect of the test compound on the nociceptive response induced by the formalin injection was calculated according to the following formula and 30% inhibition dose (ED30 value) was determined by the probit method. To mention, for illustration, ED30 value of carbamazepine was 27 mg/kg. Percent inhibition (%)=[(PRcontrol−PRtest)/PRcontrol]×100 wherein PRtest is the response time (sec) of the test group which received formalin and the test compound, while PRcontol is the response time of the control group which. received formalin and vehicle."}, "[6]": {"assay": "Metabolic stability in monkey liver microsomes and hepatocytes", "format": "in vitro ADME"}, "rhesus male monkeys": {"system": "rhesus male monkeys", "assay": "Toxicological study, oral, 14 days, monkeys", "format": "in vivo, rhesus monkey", "conditions": "oral 40 mg/Kg/day once daily for 14 days", "experimental": "The compound Example 12 or Example 29 were orally given to 3 year-old rhesus male monkeys at 20 mg/Kg/day and 40 mg/Kg/day, respectively, once daily for 14 days."}, "[7]": {"system": "rat model made by loosely constricting the sciatic nerve", "assay": "Efficacy in the rat model made by loosely constricting the sciatic nerve (von Frey response threshold)", "format": "in vivo", "conditions": "one hour after dosing", "experimental": "[Efficacy in the Rat Model Made by Loosely Constricting the Sciatic Nerve]\nPreparation of the rat pain model based on the constriction of the sciatic nerve was performed by the method introduced by Bennett et al. (“Pain,” 33:87, 1988). Specifically, the rat was anesthetized with i.p. injection of pentobarbital sodium at 40 mg/kg; the overlying skin was cut open; and the left biceps femoris muscle was bluntly separated. The sciatic nerve was isolated from surrounding tissues; it was gently constricted at four sites about 1 mm apart from each other by the use of surgical gut sutures (4-0 or 3-0 chromic gut); the operated part was closed; and the rat was returned to its cage for further feeding. For the rat belonging to the sham-surgery group, the same operation was performed except that the sciatic nerve was left untouched. Two weeks after the surgery, the response threshold to a mechanical stimulus consisting of touch with von Frey filaments was determined. The test proceeded as follows: the test compound was orally applied to the rat having the sciatic nerve constricted; one hour later, von Frey hairs were applied against the foot pad (spots ranging from heel to the mid-point of foot) one after another in an ascending order of their stiffness; if the rat raises its foot when a certain von Frey hair was applied, the stimulus intensity of that hair was taken as the response threshold (maximum stimulus intensity being 28.84 g)."}, "[8]": {"assay": "Metabolic stability in rat liver microsomes and hepatocytes", "format": "in vitro ADME"}, "[9]": {"assay": "Pharmacokinetics: plasma concentration after a single oral administration", "format": "in vivo", "conditions": "male rhesus monkey", "from_the_text": "The compound of Example 12 or Example 29 were studied about time-course profile of plasma concentration after a single oral administration to 3 or 4 year-old male rhesus monkey. […] Therefore, it can be considered to cause unlikely the drug-drug interaction by the compounds. […] Therefore, it can be considered that the compounds are unlikely metabolized by first pass effect."}, "rhesus male monkey": {"system": "rhesus male monkey", "assay": "Holter ECG test", "format": "in vivo", "conditions": "oral 80 mg/Kg, 4 year-old rhesus male monkey", "experimental": "In Holter ECG test, the compound of Example 12 or Example 29 were orally given to 4 year-old rhesus male monkey at 80 mg/Kg. There was no effect in electrocardiogram."}, "[10]": {"conditions": "until 24 hours after final administration"}}}
{"compound": "CN(CC1(O)CCN(CCc2ccc(C#N)cc2)CC1)c1ccc(C(=O)O)cc1.Cl", "note": "[Example 29, 4-({1-[2-(4-cyanophenyl)ethyl]-4-hydroxypiperidin-4-ylmethyl}methylamino)benzoic acid monohydrochloride]", "values": [{"measurement": "metabolic stability", "setting": "[1]", "value": "metabolically stable"}, {"measurement": "inhibitory effect on human-drug metabolizing enzymes", "setting": "[2]", "value": "no serious inhibitory effect"}, {"measurement": "general appearances, body weight gains and food consumptions", "setting": "[3]", "value": "no abnormalities"}, {"measurement": "hematology, biochemistry, organ weight, and histopathology", "setting": "[3]", "value": "No abnormal findings"}, {"measurement": "survival", "setting": "[3]; [10]", "value": "All the rats survived"}, {"measurement": "metabolic stability", "setting": "[4]", "value": "metabolically stable"}, {"measurement": "ED30 value (30% inhibition dose)", "setting": "[5]", "value": 1.2, "unit": "mg/kg"}, {"measurement": "metabolic stability", "setting": "[6]", "value": "metabolically stable"}, {"measurement": "general appearances, body weight gains and food consumptions", "setting": "rhesus male monkeys", "value": "no abnormalities"}, {"measurement": "hematology, biochemistry, organ weight, and histopathology", "setting": "rhesus male monkeys", "value": "No abnormal findings"}, {"measurement": "survival", "setting": "rhesus male monkeys; [10]", "value": "All the monkeys survived"}, {"measurement": "Mean threshold (g) Injured foot (left)", "setting": "[7]; dose 1 mg/kg oral", "value": 5.22, "unit": "g"}, {"measurement": "Mean threshold (g) Normal foot (right)", "setting": "[7]; dose 1 mg/kg oral", "value": 14.12, "unit": "g"}, {"measurement": "Mean threshold (g) Injured foot (left)", "setting": "[7]; dose 3 mg/kg oral", "value": 7.09, "unit": "g"}, {"measurement": "Mean threshold (g) Normal foot (right)", "setting": "[7]; dose 3 mg/kg oral", "value": 14.49, "unit": "g"}, {"measurement": "Mean threshold (g) Injured foot (left)", "setting": "[7]; dose 10 mg/kg oral", "value": 8.61, "unit": "g"}, {"measurement": "Mean threshold (g) Normal foot (right)", "setting": "[7]; dose 10 mg/kg oral", "value": 15.49, "unit": "g"}, {"measurement": "metabolic stability", "setting": "[8]", "value": "metabolically stable"}, {"measurement": "bioavailability", "setting": "[9]", "value": "very good bioavailability"}, {"measurement": "maximum plasma concentration (Cmax) and area under the plasma concentration-time curve (AUC) versus dose", "setting": "[9]", "value": "increased almostly in proportion to the doses"}, {"measurement": "effect in electrocardiogram", "setting": "rhesus male monkey", "value": "no effect"}]}
